Measurements reported in ChEMBL document CHEMBL2069273, “Modulation of cofilin phosphorylation by inhibition of the Lim family kinases” (Bioorg Med Chem Lett, 2012).
The source made the active and inactive calls. No cut-off for these calls is given here.

Key:
[1] = target: T1, LIM domain kinase 1 (Homo sapiens, UniProt P53667); test: Inhibition of LIMK1
Target sequence in this assay (P53667 whole entry, the tested form may be a part): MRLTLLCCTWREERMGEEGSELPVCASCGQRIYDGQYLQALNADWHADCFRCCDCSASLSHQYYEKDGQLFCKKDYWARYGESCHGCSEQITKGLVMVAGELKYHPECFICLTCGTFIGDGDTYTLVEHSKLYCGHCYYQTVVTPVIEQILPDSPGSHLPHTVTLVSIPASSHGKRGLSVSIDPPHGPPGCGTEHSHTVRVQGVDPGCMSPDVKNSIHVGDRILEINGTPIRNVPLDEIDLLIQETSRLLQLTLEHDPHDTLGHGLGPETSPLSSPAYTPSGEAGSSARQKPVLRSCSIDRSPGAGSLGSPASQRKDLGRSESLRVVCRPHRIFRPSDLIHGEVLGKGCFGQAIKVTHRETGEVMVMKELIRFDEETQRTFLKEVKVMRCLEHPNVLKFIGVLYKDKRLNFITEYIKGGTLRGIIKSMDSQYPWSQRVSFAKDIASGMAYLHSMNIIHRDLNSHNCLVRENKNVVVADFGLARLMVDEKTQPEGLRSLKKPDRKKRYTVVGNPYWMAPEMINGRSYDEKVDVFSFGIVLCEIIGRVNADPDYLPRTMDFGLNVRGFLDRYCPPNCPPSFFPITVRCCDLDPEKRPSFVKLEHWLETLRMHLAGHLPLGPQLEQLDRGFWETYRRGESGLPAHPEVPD

[2] = target: T2, LIM domain kinase 2 (Homo sapiens, UniProt P53671); test: Inhibition of LIMK2
Target sequence in this assay (P53671 whole entry, the tested form may be a part): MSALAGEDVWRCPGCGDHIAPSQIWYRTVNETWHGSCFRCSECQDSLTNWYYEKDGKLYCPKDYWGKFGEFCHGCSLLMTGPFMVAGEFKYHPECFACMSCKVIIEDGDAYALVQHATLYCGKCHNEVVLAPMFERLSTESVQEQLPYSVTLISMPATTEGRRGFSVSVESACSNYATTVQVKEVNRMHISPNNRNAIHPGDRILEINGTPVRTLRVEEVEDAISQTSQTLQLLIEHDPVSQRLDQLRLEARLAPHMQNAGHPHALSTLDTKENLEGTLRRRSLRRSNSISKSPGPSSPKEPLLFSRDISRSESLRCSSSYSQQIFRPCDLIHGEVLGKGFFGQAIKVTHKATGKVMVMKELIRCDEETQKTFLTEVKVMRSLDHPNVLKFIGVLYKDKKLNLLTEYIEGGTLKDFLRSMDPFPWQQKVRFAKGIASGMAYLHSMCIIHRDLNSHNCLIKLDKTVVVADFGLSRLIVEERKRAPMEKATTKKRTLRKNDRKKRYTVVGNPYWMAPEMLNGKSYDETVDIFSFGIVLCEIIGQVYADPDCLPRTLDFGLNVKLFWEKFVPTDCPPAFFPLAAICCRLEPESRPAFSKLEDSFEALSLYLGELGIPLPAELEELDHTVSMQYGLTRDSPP

[3] = target: Dual specificity testis-specific protein kinase 1 (Homo sapiens, UniProt Q15569); test: Inhibition of TESK1
[4] = target: T3, Dual specificity testis-specific protein kinase 2 (Homo sapiens, UniProt Q96S53); test: Inhibition of TESK2 at 30 uM
Target sequence in this assay (Q96S53 whole entry, looked up): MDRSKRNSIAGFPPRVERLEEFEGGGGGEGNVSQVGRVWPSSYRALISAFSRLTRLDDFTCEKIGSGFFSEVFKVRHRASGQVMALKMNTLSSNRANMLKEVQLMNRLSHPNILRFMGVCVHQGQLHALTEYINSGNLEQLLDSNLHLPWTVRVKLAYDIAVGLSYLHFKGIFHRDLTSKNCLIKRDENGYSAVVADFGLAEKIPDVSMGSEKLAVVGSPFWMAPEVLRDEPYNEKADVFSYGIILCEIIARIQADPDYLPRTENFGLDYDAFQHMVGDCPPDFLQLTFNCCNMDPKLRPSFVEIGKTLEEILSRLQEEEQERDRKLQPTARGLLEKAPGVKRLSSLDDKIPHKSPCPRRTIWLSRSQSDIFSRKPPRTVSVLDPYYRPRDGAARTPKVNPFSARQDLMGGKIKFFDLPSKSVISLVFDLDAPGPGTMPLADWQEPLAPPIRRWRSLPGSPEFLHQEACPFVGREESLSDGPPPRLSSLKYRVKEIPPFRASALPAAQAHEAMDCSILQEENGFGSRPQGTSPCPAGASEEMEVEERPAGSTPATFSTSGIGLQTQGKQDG

[5] = target: T3, Dual specificity testis-specific protein kinase 2; test: Inhibition of TESK2
Target sequence in this assay (Q96S53 whole entry): as the sequence (Q96S53 whole entry, looked up) above

[6] = target: T4, Mitogen-activated protein kinase 14 (Homo sapiens, UniProt Q16539); test: Inhibition of MAPK p38alpha
[7] = target: T1, LIM domain kinase 1; test: Inhibition of LIMK1-mediated cofilin Ser3 phosphorylation in human HT1080 cells; type: cell-based; conditions: HT-1080
[8] = target: T2, LIM domain kinase 2; test: Inhibition of LIMK2-mediated cofilin Ser3 phosphorylation in human HT1080 cells; type: cell-based; conditions: HT-1080
Target sequence in this assay (P53671 whole entry, looked up, the tested form may be a part): as the sequence (P53671 whole entry, the tested form may be a part) above

[9] = test system: HT-1080; test: Cytotoxicity against human HT1080 cells assessed as inhibition of thymidine incorporation; type: cell-based
[10] = test system: HT-1080; test: Induction of F-actin depolymerization in human HT1080 cells at 5 uM after 2 days by fluorescein-tagged phalloidin staining; type: functional, cell-based
[11] = target: T5, Activin receptor type-1B (Homo sapiens) (UniProt P36896); test: Binding affinity to human Alk4
T5 sequence (whole entry): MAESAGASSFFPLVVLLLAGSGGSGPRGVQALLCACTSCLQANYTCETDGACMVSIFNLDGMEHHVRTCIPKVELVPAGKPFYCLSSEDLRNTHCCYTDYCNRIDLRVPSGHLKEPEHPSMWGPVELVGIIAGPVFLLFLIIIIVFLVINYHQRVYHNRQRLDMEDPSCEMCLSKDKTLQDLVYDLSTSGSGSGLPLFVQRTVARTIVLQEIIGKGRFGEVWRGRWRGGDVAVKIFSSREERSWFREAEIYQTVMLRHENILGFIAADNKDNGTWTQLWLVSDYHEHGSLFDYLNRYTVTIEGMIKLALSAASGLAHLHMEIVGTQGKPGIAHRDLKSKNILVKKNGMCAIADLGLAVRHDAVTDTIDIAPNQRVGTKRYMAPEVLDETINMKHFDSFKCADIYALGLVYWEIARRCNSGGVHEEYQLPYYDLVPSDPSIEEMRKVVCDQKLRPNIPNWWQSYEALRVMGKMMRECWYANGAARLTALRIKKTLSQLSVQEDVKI

[12] = target: Epithelial discoidin domain-containing receptor 1 (Homo sapiens) (UniProt Q08345); test: Binding affinity to human DDR1
[13] = target: T6, Serine/threonine-protein kinase 36 (Homo sapiens) (UniProt Q9NRP7); test: Binding affinity to human fused kinase
T6 sequence (whole entry): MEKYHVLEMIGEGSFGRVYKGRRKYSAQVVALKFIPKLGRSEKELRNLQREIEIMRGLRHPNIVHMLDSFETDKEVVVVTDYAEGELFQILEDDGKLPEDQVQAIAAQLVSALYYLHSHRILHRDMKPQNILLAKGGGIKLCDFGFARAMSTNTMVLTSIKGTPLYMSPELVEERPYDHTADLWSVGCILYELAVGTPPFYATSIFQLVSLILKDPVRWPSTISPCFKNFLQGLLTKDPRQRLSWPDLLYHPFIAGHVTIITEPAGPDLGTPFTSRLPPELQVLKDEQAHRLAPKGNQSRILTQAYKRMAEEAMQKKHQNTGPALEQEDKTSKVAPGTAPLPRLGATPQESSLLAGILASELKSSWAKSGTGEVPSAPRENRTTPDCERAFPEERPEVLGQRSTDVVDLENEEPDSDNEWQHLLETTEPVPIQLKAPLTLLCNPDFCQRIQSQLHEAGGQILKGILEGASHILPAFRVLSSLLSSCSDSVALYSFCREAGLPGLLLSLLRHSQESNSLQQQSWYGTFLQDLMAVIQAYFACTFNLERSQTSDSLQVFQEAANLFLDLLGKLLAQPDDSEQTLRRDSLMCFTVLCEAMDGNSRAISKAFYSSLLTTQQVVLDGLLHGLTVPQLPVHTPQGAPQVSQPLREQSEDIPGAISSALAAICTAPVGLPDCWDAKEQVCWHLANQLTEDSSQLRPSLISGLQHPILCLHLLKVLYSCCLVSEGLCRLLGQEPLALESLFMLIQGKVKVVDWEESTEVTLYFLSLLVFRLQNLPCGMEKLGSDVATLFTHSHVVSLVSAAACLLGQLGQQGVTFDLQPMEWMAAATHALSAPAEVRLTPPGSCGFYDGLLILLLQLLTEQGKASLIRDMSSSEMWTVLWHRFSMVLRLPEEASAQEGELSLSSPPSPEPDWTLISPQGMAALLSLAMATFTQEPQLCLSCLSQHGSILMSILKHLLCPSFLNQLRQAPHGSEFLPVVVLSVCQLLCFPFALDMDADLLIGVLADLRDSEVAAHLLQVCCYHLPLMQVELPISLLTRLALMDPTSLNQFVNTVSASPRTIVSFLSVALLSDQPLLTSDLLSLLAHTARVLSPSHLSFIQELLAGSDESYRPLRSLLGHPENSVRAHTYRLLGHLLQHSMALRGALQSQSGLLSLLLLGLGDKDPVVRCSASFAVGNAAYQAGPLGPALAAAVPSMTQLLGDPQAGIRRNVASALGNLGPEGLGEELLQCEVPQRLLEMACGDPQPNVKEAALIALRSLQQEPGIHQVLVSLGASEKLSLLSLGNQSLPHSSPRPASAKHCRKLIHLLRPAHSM

[14] = target: Mast/stem cell growth factor receptor Kit (Homo sapiens) (UniProt P10721); test: Binding affinity to human KIT
[15] = test system: Mast/stem cell growth factor receptor Kit (Homo sapiens), P10721 [V559D]; test: Binding affinity to human KIT V559D mutant
[16] = target: T2, LIM domain kinase 2; test: Binding affinity to human LIMK2
Target sequence in this assay (P53671 whole entry, looked up, the tested form may be a part): as the sequence (P53671 whole entry, the tested form may be a part) above

[17] = target: T7, TGF-beta receptor type-1 (Homo sapiens) (UniProt P36897); test: Binding affinity to human TGFBR1
T7 sequence (whole entry): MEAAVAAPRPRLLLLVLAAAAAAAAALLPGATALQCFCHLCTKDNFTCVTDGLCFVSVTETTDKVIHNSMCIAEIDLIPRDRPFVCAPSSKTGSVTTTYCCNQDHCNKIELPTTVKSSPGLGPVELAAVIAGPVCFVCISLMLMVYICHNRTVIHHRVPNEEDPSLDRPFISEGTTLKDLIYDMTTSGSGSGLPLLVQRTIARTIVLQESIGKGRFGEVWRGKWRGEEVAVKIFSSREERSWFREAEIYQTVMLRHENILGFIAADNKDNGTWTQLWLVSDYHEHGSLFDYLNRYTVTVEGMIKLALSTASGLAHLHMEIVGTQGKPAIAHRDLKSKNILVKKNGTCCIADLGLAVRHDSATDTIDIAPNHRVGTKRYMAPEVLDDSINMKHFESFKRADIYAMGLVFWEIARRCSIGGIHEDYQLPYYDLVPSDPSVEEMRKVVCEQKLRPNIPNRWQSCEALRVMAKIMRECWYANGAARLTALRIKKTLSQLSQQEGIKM

[18] = target: Angiopoietin-1 receptor (Homo sapiens) (UniProt Q02763); test: Binding affinity to human TIE2
[19] = target: T4, Mitogen-activated protein kinase 14; test: Binding affinity to human p38alpha

Chain of Dual specificity testis-specific protein kinase 1 (Q15569 whole entry): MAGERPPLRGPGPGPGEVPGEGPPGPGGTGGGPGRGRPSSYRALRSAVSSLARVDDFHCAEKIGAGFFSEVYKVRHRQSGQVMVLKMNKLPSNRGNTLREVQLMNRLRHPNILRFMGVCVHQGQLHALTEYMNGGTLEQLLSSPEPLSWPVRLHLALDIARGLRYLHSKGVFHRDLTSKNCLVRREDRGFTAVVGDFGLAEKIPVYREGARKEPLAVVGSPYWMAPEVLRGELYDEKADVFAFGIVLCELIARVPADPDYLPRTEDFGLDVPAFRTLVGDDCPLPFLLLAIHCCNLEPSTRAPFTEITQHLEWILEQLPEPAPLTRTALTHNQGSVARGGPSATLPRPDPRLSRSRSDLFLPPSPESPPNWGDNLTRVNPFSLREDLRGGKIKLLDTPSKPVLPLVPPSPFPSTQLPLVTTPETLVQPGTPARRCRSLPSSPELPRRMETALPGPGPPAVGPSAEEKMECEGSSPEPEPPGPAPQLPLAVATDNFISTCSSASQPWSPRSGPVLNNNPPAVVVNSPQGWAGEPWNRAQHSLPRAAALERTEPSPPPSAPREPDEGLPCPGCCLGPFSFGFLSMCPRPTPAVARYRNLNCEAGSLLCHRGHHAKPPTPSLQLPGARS
T4 sequence (Q16539 whole entry, the tested form may be a part): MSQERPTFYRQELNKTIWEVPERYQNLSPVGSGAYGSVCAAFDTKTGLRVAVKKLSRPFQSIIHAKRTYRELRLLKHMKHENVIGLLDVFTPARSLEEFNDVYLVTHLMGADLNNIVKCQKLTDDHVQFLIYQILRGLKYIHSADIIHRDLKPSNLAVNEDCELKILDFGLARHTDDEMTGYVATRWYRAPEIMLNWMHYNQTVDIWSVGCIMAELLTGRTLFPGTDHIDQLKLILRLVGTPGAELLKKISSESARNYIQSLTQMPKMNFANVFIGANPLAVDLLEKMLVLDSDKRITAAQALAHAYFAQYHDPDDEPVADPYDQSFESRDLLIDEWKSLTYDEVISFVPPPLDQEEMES
Chain of Epithelial discoidin domain-containing receptor 1 (Homo sapiens) (Q08345 whole entry, the tested form may be a part): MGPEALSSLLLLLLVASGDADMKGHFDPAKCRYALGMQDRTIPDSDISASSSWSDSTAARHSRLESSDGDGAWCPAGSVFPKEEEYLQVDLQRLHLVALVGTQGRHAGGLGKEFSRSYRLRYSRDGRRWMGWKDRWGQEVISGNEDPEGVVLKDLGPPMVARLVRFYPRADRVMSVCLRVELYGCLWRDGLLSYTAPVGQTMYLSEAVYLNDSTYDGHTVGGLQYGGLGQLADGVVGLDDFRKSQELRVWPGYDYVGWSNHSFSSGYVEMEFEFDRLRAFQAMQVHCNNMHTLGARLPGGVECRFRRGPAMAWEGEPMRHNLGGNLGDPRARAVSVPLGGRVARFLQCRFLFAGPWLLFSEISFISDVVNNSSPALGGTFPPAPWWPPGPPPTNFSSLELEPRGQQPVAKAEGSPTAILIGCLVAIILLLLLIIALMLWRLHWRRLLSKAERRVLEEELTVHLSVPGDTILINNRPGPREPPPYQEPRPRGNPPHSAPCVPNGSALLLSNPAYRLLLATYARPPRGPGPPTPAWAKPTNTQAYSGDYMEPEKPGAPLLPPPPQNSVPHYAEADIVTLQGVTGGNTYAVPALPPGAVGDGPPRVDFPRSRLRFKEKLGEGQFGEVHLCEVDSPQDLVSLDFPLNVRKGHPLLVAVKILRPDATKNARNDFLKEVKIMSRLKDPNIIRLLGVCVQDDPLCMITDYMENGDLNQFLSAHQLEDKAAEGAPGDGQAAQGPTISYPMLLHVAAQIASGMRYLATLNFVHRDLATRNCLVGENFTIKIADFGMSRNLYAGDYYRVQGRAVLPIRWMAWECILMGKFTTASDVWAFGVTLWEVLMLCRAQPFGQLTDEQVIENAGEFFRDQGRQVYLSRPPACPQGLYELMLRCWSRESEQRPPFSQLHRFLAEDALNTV

| Structure (SMILES) | IC50 [1] | IC50 [2] | IC50 [3] | IC50 [5] | other results |
| --- | --- | --- | --- | --- | --- |
| CCCNc1ncc(-c2cc(-c3ccc(OC4CCCC4)cc3Cl)nc(-c3cnccn3)n2)s1 | 210 nM | 50000 nM | > 30 µM | > 30 µM |  |
| CCCNc1ncc(-c2cc(-c3ccc(OC)cc3Cl)nc(-c3cnccn3)n2)s1 | 1660 nM | 1230 nM | > 30 µM | > 30 µM |  |
| CCCNc1ncc(-c2cc(-c3ccc(O)cc3Cl)nc(-c3cnccn3)n2)s1 | 7730 nM | > 12500 nM | > 30 µM | > 30 µM |  |
| CCC(CC)Oc1cc(C)c(-c2cc(-c3cnc(NC(=O)OC)s3)nc(-c3cnccn3)n2)c(C)c1 | 227 nM | 382 nM | > 30 µM | > 30 µM |  |
| CCCCCOc1ccc(-c2cc(-c3cnc(NCCC)s3)nc(-c3cnccn3)n2)c(Cl)c1 | 444 nM | 1540 nM | > 30 µM | > 30 µM |  |
| COC(=O)Nc1ncc(-c2cc(-c3c(C)cc(OC)cc3C)nc(-c3cnccn3)n2)s1 | 284 nM | 202 nM | 11.9 µM | 2.74 µM |  |
| CCCNc1ncc(-c2cc(-c3c(Cl)cc(OC4CCCC4)cc3Cl)nc(-c3cnccn3)n2)s1 | 250 nM | 810 nM | > 30 µM | > 30 µM |  |
| CCOc1ccc(-c2cc(-c3cnc(NC(C)C)s3)nc(-c3cnccn3)n2)c(Cl)c1 | 368 nM |  |  |  | IC50 [6]: 2000 nM |
| CCCNc1ncc(-c2cc(-c3ccc(OC(CC)CC)cc3Cl)nc(-c3cnccn3)n2)s1 | 359 nM | 50000 nM | > 30 µM | > 30 µM |  |
| CCCNc1ncc(-c2cc(-c3ccc(OC(CC)CC)cc3C)nc(-c3cnccn3)n2)s1 | 213 nM | 1220 nM | > 30 µM | > 30 µM |  |
| CCOc1ccc(-c2cc(-c3cnc(NC(C)C)s3)nc(-c3ccccc3F)n2)c(Cl)c1 | > 50000 nM |  |  |  | IC50 [6]: 590 nM |
| CCCNc1ncc(-c2cc(-c3cc(OCCC)ccc3Cl)nc(-c3cnccn3)n2)s1 | 1040 nM | 171 nM | > 30 µM | > 30 µM |  |
| CCCNc1ncc(-c2cc(-c3cc(OC)ccc3Cl)nc(-c3cnccn3)n2)s1 | 12500 nM | 760 nM | > 30 µM | > 30 µM |  |
| CCOc1ccc(-c2cc(-c3cnc(NC(C)C)s3)nc(-c3ccccn3)n2)c(Cl)c1 | 485 nM |  |  |  | IC50 [6]: 3940 nM |

These reach a lower IC50 [1]. Values come first.

| IC50 [1] | IC50 [2] | IC50 [3] | IC50 [5] | Structure (SMILES) | other results |
| --- | --- | --- | --- | --- | --- |
| 172 nM | 245 nM | > 12.5 µM | > 12.5 µM | CCC(CC)Oc1cc(C)c(-c2cc(-c3cnc(NC(=O)C(C)C)s3)nc(-c3cnccn3)n2)c(C)c1 |  |
| 163 nM | 1530 nM | > 30 µM | > 30 µM | CCCNc1ncc(-c2cc(-c3c(Cl)cc(OC(CC)CC)cc3Cl)nc(-c3cnccn3)n2)s1 |  |
| 145 nM | 28 nM | > 30 µM | > 30 µM | CCCNc1ncc(-c2cc(-c3cc(OCCC4CCCCC4)ccc3Cl)nc(-c3cnccn3)n2)s1 |  |
| 115 nM | 141 nM | > 30 µM | > 30 µM | CCCNc1ncc(-c2cc(-c3c(Cl)cc(OCCC)cc3Cl)nc(-c3cnccn3)n2)s1 |  |
| 87 nM | 59 nM | 2.26 µM | 0.612 µM | COc1cc(C)c(-c2cc(-c3cnc(NC(C)=O)s3)nc(-c3cnccn3)n2)c(C)c1 |  |
| 66 nM | 173 nM | 2.2 µM | 0.415 µM | CCC(CC)Oc1cc(C)c(-c2cc(-c3cnc(NC(=O)NC)s3)nc(-c3cnccn3)n2)c(C)c1 |  |
| 64 nM | 311 nM | > 30 µM | 2.01 µM | CCC(CC)Oc1cc(C)c(-c2cc(-c3cnc(NC(C)=O)s3)nc(-c3cnccn3)n2)c(C)c1 |  |
| 58 nM | 38 nM | 0.455 µM | 0.252 µM | CCNC(=O)Nc1ncc(-c2cc(-c3c(C)cc(OC)cc3C)nc(-c3cnccn3)n2)s1 | inhibition [7]: Dose-dependent effect; inhibition [8]: Dose-dependent effect; IC50 [9]: > 50 µM; Activity [10]: Active; Activity [11]: Active; Activity [12]: Active; Activity [13]: Active; Activity [14]: Active; Activity [15]: Active; Activity [16]: Active; Activity [17]: Active; Activity [18]: Active; Activity [19]: inactive |
| 38 nM | 16 nM | > 30 µM |  | CCCNc1ncc(-c2cc(-c3c(Cl)cc(OC)cc3Cl)nc(-c3cnccn3)n2)s1 | inhibition [4]: 72% |
| 32 nM | 12 nM | > 30 µM | > 30 µM | CNC(=O)Nc1ncc(-c2cc(-c3c(Cl)cc(OC)cc3Cl)nc(-c3cnccn3)n2)s1 |  |
| 30 nM | 8 nM | > 30 µM | > 30 µM | COc1cc(Cl)c(-c2cc(-c3cnc(NC(C)=O)s3)nc(-c3cnccn3)n2)c(Cl)c1 |  |
| 23 nM | 16 nM | 1.13 µM | 0.415 µM | CNC(=O)Nc1ncc(-c2cc(-c3c(C)cc(OC)cc3C)nc(-c3cnccn3)n2)s1 |  |
